From article PMC9108603, “Microbial Metabolite Inspired β‐Peptide Polymers Displaying Potent and Selective Antifungal Activity” (Advanced Science, 2022) come the findings set out here.

The test system of assay [1] is C. neoformans. The assay can be described thus: MIC assay (in vitro antifungal assay). It counts as cell-based. As to conditions: Cryptococcus neoformans, 48 h. As to the method: In vitro antifungal assays. The MIC assays for C. albicans (K1, SC5314, Gu5, ATCC90028, R01, R02, R03 and R04 strains) and C. neoformans (H99, MYA737 and JEC21 strains) were conducted according to a previously described protocol. The cultured fungal cells were collected at 2.5 × 10^3 CFU/mL in RPMI 1640 medium to give the working suspension. Two- […]
plate to give 50 µL compound solution in each well. Then 50 µL of the cell suspension was added to each well. Wells containing cells in RPMI without any polymer or antifungal drug were used as drug-free controls, and wells containing RPMI medium only were used as cell-free controls. The plate was gently stirred for 10 seconds and then incubated at 30 °C. After C. albicans and C. neoformans cells were incubated for 24 h and 48 h, respectively, fungal cell growth was checked visually. […]

Assay [2] has as its system various mammalian cells. The assay can be described thus: Cytotoxicity, MTT assay, summary over cell types. It counts as cell-based. As to conditions: HUVEC, RAW264.7, LO2, COS7, NCM‐460, 24 h, read-out: IC50 for cells other than fibroblast (range). As to the method:
Cytotoxicity assay. Cytotoxicity tests were performed on NIH 3T3 fibroblast cells, endothelial cells (HUVEC), macrophage (RAW264.7), liver cells (LO2), kidney cells (COS7) and enterocyte (NCM-460) using MTT assay. Cells were cultured in DMEM supplemented with 10% FBS, 5% penicillin, 2 mM L-glutamine and incubated at 37 °C in 5% CO 2. Cells were harvested and seeded onto 96-well plates at a density of 1.0 × 10^4 cells per well and incubated for 24 h. On each plate, wells containing growth medium only and cells in growth medium without any antifungal agent were used as the negative and positive control, […]
concentrations ranging from 800 to 1.6 μg/mL. Medium in each cell-containing well was replaced with 100 μL of the corresponding polymer solution, and the plates were incubated at 37 °C for 24 h. Then, the solution in each well was switched to 100 µL MTT solution (1 mg/mL) and the plate was incubated in the dark at 37 °C for 4 h. […] Then 85 µL of the supernatant from each well was transferred to the corresponding well in a new plate, followed by absorbance measurement at 570 nm on a plate reader. […] The percentage of cell viability in each test well, relative to the positive control (which defines 100%) w as calculated from [% fibroblast growth = (A polymer – Ablank)/(Acontrol – A blank) × 100]. […]
(In general: Formazan colour is commonly taken as a measure of viable cells.)

For assay [3], the system named is C. albicans K1 strain. The assay can be described thus: Kill kinetics assay. In kind it is cell-based, Candida albicans. The conditions noted are these: 2 × MFC, C. albicans K1, RPMI 1640, 30 °C, CFU on YPD agar, duplicates. As to the method: Kill kinetics assay. A culture of C. albicans K1 strain was collected at 2.5 × 10^3 CFU/mL or 6.0 × 10^6 CFU/mL in RPMI 1640 medium to give the working suspension. […]
solution was added to 0.5 mL of the above fungal suspension in each well of a 24-well plate to achieve 2 × MFC of polymer concentration. The fungal suspensions were incubated at 30 °C. At desired time points, each suspension was homogeneously mixed and 30 µL of each

What is called MIC is the lowest concentration that inhibits growth of the organism. As a reminder, the IC50 is the concentration needed to halve the response being measured.

In brackets after ≈: the same amount, converted by molar mass. Like-named read-outs stand apart in the source and are kept apart here.

Turning to `C[C@@H]1[C@H](O)[C@@H](C)/C=C/C=C/C=C/C=C/C=C/C=C/C=C/[C@H](O[C@@H]2O[C@H](C)[C@@H](O)[C@H](N)[C@@H]2O)C[C@@H]2O[C@](O)(C[C@@H](O)C[C@@H](O)[C@H](O)CC[C@@H](O)C[C@@H](O)CC(=O)O[C@H]1C)C[C@H](O)[C@H]2C(=O)O` [AmpB, amphotericin B], the minimum inhibitory concentration (MIC) in assay [1] (read-out: MIC C. neoformans H99), in assay [1] (read-out: MIC C. neoformans JEC21) and in assay [1] (read-out: MIC C. neoformans MYA737) was 1.6 µg/mL (≈ 1.73 µM) in each case. Besides, the IC50 in assay [2] lay within 8.8 to 128 µg/mL (≈ 9.52 to 139 µM).

As for poly(DL‐diaminopropionic acid) [PDAP20], the “Time to completely kill the fungi (time‐kill kinetics)” value in assay [3] is listed as “several hours”.
